In assay [1] the target is T1, Very long-chain specific acyl-CoA dehydrogenase, mitochondrial (Homo sapiens, UniProt P49748).
T1 sequence (P49748 whole entry): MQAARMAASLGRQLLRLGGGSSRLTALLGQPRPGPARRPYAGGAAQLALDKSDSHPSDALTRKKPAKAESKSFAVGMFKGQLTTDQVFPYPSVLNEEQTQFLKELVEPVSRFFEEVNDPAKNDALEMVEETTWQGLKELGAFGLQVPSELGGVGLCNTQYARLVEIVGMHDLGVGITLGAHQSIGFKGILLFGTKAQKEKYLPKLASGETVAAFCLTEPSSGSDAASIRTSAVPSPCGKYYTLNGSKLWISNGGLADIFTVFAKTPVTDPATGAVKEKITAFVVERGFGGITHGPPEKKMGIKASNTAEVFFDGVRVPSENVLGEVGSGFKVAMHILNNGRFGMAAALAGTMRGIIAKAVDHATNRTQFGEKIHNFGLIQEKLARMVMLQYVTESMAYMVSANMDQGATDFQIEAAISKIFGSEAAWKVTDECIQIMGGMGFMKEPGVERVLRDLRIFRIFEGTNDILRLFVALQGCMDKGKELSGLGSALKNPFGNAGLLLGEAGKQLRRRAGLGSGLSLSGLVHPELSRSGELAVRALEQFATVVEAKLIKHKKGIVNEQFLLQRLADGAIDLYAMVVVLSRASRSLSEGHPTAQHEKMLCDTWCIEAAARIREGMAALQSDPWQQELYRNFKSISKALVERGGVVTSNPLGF

The target of a further assay is Adenosine kinase (Homo sapiens, UniProt P55263).
Assay [2] deals with BMP-2-inducible protein kinase (Homo sapiens, UniProt Q9NSY1).
The target of assay [3] is Putative heat shock protein HSP 90-beta 2 (Homo sapiens, UniProt Q58FF8).
Assay [4] deals with Mitogen-activated protein kinase 7 (Homo sapiens, UniProt Q13164).
Assay [5] has as its target Membrane-associated progesterone receptor component 1 (Homo sapiens, UniProt O00264).
Another assay has as its target T2, Rab-like protein 3 (Homo sapiens, UniProt Q5HYI8).
T2 sequence (Q5HYI8 whole entry): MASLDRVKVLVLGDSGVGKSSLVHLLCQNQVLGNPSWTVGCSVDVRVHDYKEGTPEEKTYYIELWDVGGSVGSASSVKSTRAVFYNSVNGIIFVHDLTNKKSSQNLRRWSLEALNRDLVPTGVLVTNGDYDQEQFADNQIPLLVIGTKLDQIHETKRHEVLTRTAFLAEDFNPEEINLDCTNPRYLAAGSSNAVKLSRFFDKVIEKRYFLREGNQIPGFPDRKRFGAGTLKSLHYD

In assay [6] the target is T3, Inhibitor of nuclear factor kappa-B kinase subunit epsilon (Homo sapiens, UniProt Q14164).
T3 sequence (Q14164 whole entry): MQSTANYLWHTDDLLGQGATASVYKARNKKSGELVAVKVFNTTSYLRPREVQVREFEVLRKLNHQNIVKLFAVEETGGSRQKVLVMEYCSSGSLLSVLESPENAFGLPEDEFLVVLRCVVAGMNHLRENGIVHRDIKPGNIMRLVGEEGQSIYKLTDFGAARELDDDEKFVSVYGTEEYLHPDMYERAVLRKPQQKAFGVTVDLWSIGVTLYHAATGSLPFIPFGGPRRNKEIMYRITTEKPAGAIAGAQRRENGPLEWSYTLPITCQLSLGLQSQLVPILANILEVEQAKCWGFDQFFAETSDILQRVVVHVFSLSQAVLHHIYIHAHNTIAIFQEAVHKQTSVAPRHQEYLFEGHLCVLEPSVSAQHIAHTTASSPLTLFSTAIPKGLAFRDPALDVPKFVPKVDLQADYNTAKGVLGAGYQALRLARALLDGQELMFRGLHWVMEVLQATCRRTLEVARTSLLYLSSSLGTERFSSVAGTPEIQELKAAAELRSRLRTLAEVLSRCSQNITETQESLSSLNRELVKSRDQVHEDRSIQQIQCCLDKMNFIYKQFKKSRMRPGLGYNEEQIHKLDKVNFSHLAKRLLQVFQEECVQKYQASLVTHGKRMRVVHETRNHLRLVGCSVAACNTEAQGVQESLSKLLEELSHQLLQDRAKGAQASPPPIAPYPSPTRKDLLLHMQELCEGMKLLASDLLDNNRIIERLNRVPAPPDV

Assay [7] deals with Serine/threonine-protein kinase PAK 4 (Homo sapiens, UniProt O96013).
Assay [8] has as its target T4, Acyl-CoA dehydrogenase family member 10 (Homo sapiens, UniProt Q6JQN1).
T4 sequence (Q6JQN1 whole entry): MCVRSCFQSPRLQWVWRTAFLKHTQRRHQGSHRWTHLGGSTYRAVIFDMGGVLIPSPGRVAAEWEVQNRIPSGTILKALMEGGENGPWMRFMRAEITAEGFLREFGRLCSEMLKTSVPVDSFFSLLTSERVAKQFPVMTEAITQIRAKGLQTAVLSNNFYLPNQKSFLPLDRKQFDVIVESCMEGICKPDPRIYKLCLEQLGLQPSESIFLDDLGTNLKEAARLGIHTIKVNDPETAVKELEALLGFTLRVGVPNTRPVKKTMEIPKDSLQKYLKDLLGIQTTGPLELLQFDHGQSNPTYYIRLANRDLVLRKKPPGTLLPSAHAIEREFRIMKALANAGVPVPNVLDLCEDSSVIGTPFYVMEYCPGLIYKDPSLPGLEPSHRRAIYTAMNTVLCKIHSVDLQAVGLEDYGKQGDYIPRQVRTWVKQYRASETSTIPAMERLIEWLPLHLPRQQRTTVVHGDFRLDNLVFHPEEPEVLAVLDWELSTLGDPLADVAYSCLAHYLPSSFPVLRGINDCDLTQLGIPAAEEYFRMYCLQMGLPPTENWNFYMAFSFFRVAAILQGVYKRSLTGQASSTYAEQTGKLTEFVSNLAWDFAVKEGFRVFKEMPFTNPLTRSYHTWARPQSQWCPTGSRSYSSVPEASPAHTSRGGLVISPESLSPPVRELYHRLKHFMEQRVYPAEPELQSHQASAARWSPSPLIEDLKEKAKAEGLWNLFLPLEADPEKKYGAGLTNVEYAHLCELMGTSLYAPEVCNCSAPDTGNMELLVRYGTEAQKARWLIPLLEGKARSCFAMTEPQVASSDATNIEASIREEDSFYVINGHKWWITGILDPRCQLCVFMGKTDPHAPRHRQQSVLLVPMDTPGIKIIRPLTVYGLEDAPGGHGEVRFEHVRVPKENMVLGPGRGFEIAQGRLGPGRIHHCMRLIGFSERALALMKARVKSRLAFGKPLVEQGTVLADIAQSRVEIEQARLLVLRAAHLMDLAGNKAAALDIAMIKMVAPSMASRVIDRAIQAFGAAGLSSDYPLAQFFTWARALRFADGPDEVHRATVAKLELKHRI

Molecules are shown by their SMILES. Activity calls are given as the source filed them.
Note: in the data inactive means no Kd found up to 30 µM.

Membrane-associated progesterone receptor component 1, sequence (O00264 whole entry): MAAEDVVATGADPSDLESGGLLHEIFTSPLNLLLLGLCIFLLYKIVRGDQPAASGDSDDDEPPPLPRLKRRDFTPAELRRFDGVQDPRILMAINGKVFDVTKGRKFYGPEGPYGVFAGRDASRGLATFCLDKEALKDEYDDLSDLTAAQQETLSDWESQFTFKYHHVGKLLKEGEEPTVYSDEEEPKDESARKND
Serine/threonine-protein kinase PAK 4, sequence (O96013 whole entry): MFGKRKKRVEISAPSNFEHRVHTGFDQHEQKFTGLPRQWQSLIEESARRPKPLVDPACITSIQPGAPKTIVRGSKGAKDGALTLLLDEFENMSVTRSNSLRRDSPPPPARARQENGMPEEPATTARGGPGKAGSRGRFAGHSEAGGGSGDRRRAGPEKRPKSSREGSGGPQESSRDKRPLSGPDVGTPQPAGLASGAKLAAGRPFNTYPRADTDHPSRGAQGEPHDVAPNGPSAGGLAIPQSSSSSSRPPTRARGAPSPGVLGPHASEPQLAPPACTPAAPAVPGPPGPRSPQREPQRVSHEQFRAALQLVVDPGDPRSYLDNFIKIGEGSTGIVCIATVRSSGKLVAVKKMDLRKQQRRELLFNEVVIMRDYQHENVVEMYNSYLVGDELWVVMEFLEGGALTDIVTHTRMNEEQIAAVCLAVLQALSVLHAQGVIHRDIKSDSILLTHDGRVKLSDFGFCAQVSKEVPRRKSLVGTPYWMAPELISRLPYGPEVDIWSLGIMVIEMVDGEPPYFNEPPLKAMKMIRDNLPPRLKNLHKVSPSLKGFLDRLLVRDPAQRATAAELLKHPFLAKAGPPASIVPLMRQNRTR
BMP-2-inducible protein kinase, sequence (Q9NSY1 whole entry): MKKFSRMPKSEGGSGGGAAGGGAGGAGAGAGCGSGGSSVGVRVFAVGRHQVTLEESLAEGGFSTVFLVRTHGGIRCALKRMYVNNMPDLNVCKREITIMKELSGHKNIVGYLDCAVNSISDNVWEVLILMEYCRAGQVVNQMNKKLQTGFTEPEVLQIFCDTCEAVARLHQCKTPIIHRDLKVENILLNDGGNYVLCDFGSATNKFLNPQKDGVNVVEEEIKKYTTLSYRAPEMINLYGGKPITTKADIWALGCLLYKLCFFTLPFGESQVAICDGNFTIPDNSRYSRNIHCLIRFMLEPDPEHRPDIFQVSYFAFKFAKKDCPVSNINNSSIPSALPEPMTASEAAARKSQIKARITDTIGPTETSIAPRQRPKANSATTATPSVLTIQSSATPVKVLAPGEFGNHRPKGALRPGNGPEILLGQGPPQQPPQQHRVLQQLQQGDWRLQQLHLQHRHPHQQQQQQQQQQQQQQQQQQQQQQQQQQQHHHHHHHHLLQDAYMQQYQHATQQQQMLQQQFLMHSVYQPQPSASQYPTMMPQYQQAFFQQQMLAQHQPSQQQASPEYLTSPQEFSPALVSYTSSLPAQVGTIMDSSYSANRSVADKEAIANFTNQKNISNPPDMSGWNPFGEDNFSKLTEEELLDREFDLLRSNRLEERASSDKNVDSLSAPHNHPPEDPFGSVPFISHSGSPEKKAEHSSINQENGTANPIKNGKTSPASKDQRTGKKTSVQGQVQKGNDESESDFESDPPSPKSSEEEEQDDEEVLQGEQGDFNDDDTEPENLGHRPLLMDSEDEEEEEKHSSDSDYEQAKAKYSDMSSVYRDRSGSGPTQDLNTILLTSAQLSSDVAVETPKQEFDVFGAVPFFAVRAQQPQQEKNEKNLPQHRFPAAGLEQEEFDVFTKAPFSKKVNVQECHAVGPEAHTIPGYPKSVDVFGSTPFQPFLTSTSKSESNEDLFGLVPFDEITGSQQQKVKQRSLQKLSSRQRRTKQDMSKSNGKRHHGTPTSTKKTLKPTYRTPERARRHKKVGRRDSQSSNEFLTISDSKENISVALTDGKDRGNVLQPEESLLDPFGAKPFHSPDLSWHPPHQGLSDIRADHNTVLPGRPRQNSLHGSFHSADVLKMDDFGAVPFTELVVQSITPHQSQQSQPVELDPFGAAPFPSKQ
Mitogen-activated protein kinase 7, sequence (Q13164 whole entry): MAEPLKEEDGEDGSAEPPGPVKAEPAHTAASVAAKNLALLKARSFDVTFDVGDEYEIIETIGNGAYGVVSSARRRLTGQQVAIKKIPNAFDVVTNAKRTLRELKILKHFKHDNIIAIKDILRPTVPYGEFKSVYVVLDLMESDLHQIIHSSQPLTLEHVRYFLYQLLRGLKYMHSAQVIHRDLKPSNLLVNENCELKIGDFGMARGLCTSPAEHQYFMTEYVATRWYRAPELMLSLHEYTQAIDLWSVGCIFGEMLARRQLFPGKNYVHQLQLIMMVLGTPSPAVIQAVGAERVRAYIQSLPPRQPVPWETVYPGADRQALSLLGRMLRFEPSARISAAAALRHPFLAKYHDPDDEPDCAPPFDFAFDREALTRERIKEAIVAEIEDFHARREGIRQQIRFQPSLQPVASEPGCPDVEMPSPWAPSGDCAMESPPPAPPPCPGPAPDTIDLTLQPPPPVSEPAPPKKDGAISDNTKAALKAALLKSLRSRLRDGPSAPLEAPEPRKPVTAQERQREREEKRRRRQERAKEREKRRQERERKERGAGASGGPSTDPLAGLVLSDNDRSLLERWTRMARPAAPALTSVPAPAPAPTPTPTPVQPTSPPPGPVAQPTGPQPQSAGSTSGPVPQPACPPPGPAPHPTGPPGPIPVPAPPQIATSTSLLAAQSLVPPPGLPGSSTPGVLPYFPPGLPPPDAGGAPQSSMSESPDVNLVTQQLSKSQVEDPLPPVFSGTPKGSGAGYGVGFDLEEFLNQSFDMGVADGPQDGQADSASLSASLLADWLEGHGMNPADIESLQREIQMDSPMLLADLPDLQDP
Putative heat shock protein HSP 90-beta 2, sequence (Q58FF8 whole entry): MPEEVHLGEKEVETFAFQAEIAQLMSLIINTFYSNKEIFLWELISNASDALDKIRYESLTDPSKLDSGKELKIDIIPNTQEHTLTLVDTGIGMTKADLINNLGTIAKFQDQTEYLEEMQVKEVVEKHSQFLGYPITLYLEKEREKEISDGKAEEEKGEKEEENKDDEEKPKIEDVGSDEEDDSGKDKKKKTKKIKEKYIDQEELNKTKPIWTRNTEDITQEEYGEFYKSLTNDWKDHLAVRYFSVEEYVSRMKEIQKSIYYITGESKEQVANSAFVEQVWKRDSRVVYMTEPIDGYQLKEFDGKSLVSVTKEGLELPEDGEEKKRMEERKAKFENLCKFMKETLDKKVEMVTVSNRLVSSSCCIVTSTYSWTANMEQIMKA
Adenosine kinase, sequence (P55263 whole entry): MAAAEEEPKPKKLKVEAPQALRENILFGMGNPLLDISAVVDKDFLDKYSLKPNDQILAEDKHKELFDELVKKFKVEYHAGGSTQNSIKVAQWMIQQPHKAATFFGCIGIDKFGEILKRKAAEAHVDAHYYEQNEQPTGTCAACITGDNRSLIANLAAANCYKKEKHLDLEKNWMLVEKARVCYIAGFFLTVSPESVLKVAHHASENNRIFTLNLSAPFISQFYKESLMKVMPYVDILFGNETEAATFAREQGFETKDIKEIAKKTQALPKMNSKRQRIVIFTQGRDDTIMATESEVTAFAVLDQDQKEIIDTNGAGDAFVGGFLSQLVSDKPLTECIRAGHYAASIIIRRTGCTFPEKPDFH

A word on the Kd: it is the concentration at which binding is half-saturated. With `COc1cc(Nc2ncc3c(n2)-c2ccc(Cl)cc2C(c2c(F)cccc2OC)=NC3)ccc1C(=O)O` [ALISERTIB], the Kd (in [1]; on Adenosine kinase; in assay [2]; in assay [3]; in [4]; in assay [5]) was > 30 µM (inactive) in each case. In addition, at Rab-like protein 3, the Kd is > 30 µM (inactive).
As for `O=C(Nc1c[nH]nc1-c1nc2cc(CN3CCOCC3)ccc2[nH]1)NC1CC1` [AT-9283], the Kd in assay [1] was > 30 µM (inactive); at Adenosine kinase, > 30 µM (inactive); in [3], > 30 µM (inactive); in [6], 0.215 µM (active); in assay [4] it was > 30 µM (inactive); in assay [5] it was > 30 µM (inactive). Also, the Kd at Rab-like protein 3 is > 30 µM (inactive).
With `Cc1cc(C(=O)NOCCO)c(Nc2ccc(I)cc2F)n(C)c1=O` [AZD-8330], the Kd (in [1]; at Adenosine kinase; in [2]; in assay [3]; in assay [6]; in [4]) was > 30 µM (inactive) in each case. Also, the Kd in [7] and in assay [5] was > 30 µM (inactive) throughout.
In the case of `C[C@@H](Oc1cc(-n2cnc3ccc(CN4CCN(C)CC4)cc32)sc1C(N)=O)c1ccccc1C(F)(F)F` [GSK-461364], the Kd in [8] was > 30 µM (inactive); in assay [1], > 30 µM (inactive); on Adenosine kinase, 2.51 µM (active); in assay [3], > 30 µM (inactive); in [5] it was > 30 µM (inactive); on Rab-like protein 3 it was > 30 µM (inactive).
As to `Cc1[nH]c(/C=C2\C(=O)Nc3ccccc32)c(C)c1CCC(=O)O` [ORANTINIB], the Kd was > 30 µM (inactive) in assay [8]; > 30 µM (inactive) in assay [1]; > 30 µM (inactive) on Adenosine kinase; 0.303 µM (active) in assay [2]; > 30 µM (inactive) in assay [3]; > 30 µM (inactive) in [4]. For the same molecule, the Kd (in [5]; on Rab-like protein 3) was > 30 µM (inactive) in each case.
Regarding `NC(=O)c1c(OCc2c(F)cc(Br)cc2F)nsc1NC(=O)NCCCCN1CCCC1` [OSI-632], the Kd (in [8]; in assay [1]; at Adenosine kinase; in [2]; in assay [3]; in assay [5]) was > 30 µM (inactive) throughout. Further, the Kd on Rab-like protein 3 was > 30 µM (inactive).
For the molecule `Cc1nc(Nc2n[nH]c3c2CN(C(=O)N[C@H](CN(C)C)c2ccccc2)C3(C)C)c2sccc2n1` [PF-03758309], the Kd in assay [8] was > 30 µM (inactive); in [1] it was > 30 µM (inactive); at Adenosine kinase, > 30 µM (inactive); in assay [2], 2.54 µM (active); in assay [3] it was > 30 µM (inactive); in assay [6], 0.658 µM (active). For the same molecule, the figures for the Kd (in assay [4]; in assay [5]; at Rab-like protein 3) were 3.89 µM (active), > 30 µM (inactive) and > 30 µM (inactive), respectively.
Regarding `CC(=O)NCC(=O)N1[C@@H]2CC[C@H]1c1ccc(Nc3ncc(C(F)(F)F)c(NC4CCC4)n3)cc12` [PF-03814735], the Kd in [8] was > 30 µM (inactive); in [1] it was > 30 µM (inactive); on Adenosine kinase, > 30 µM (inactive); in [2], 0.015 µM (active); in assay [3], > 30 µM (inactive); in [4], 2.96 µM. Besides, the Kd (in assay [5]; at Rab-like protein 3) was > 30 µM (inactive) each time.
With `N#CC1(c2ccc(NC(=O)c3cccnc3NCc3ccncc3)cc2)CCCC1` [RIVOCERANIB], the Kd (in assay [8]; in assay [1]; at Adenosine kinase; in [2]; in assay [3]; in [6]) was > 30 µM (inactive) in each case. The Kd (in [4]; in assay [7]; at Rab-like protein 3) was > 30 µM (inactive) each time.
As to `O=C(NOCCO)c1cc(CN2OCCCC2=O)c(F)c(F)c1Nc1ccc(I)cc1F` [RO-4987655], the Kd (in [8]; in assay [1]; in assay [3]; in assay [5]; at Rab-like protein 3) was > 30 µM (inactive) throughout.
`CN1CCN(CCOc2cc(OC3CCOCC3)c3c(Nc4c(Cl)ccc5c4OCO5)ncnc3c2)CC1` [SARACATINIB]: the Kd (in [8]; in assay [1]; at Adenosine kinase; in assay [2]; in assay [3]; in assay [6]) was > 30 µM (inactive) in each case. For the same molecule, the Kd (in [4]; in assay [7]; on Rab-like protein 3) was > 30 µM (inactive) throughout.
Regarding `Cn1ncc(Cl)c1-c1cc(C(=O)N[C@H](CN)Cc2ccc(F)c(F)c2)oc1Cl` [UPROSERTIB], the Kd (in assay [1]; at Adenosine kinase; in [2]; in assay [3]; in assay [6]; in assay [7]) was > 30 µM (inactive) in each case. Also, the Kd (in [5]; on Rab-like protein 3) was > 30 µM (inactive) each time.

Source of the values: ChEMBL document CHEMBL3991601, “The target landscape of clinical kinase drugs” (Science, 2017).
